The values that follow come from patent US20130065757A1, “CHEMICAL COMPOUNDS” (Syngenta Limited, priority 2010, published 2013).

What all share (assay type): in vivo
In assay [1] the test system is Alopecurus myosuroides (ALOMY). Description: Pre-emergence biological efficacy, glasshouse pot test. The note with it: 312 h, 1,000 g/ha, evaluated after 13 days, 100=total damage, 0=no damage, read-out: Percentage damage caused to weed species, pre-emergence, ALOMY. The method, then:
(§1) Seeds of Alopecurus myosuroides (ALOMY), Setaria faberi (SETFA), Echinochloa crus-galli (ECHCG), Solanum nigrum (SOLNI), Amaranthus retroflexus (AMARE) and Ipomoea hederaceae (IPOHE) were sown in standard soil in pots. After cultivation for one day under controlled conditions in a glasshouse (at 24/16° C., day/night; 14 hours light; 65% humidity), the plants were sprayed with an aqueous spray solution derived from the formulation of the technical active ingredient in acetone/water (50:50) solution containing 0.5% Tween 20 (polyoxyethylene sorbitan monolaurate, CAS RN 9005-64-5) to give a final dose of 1000 g/ha of test compound.
(§2) The test plants were then grown under controlled conditions in the glasshouse (at 24/16° C., day/night; 14 hours light; 65% humidity) and watered twice daily. After 13 days the test was evaluated (100=total damage to plant; 0=no damage to plant).

Assay [2] has as its system Amaranthus retroflexus (AMARE). Described as above. The settings on record: 312 h, 1,000 g/ha, evaluated after 13 days, 100=total damage, 0=no damage, read-out: Percentage damage caused to weed species, pre-emergence, AMARE. The method, then:
as §1, §2

In assay [3] the test system is Echinochloa crus-galli (ECHCG). Described as above. The note with it: 312 h, 1,000 g/ha, evaluated after 13 days, 100=total damage, 0=no damage, read-out: Percentage damage caused to weed species, pre-emergence, ECHCG. The method, then: as §1, §2
Assay [4] concerns Ipomoea hederaceae (IPOHE). The description is as above. The note with it: 312 h, 1,000 g/ha, evaluated after 13 days, 100=total damage, 0=no damage, read-out: Percentage damage caused to weed species, pre-emergence, IPOHE. The method, then:
as §1, §2

Assay [5] relates to Setaria faberi (SETFA). The description is as above. The note with it: 312 h, 1,000 g/ha, evaluated after 13 days, 100=total damage, 0=no damage, read-out: Percentage damage caused to weed species, pre-emergence, SETFA. The method, then:
as §1, §2

Assay [6] concerns Solanum nigrum (SOLNI). The description is as above. The settings on record: 312 h, 1,000 g/ha, evaluated after 13 days, 100=total damage, 0=no damage, read-out: Percentage damage caused to weed species, pre-emergence, SOLNI. The protocol:
as §1, §2

The subject of assay [7] is Alopecurus myosuroides (ALOMY). Description: Post-emergence biological efficacy, glasshouse pot test. The settings on record: 312 h, 1,000 g/ha, post-emergence (sprayed after 8 days), evaluated after 13 days, 100=total damage, 0=no damage, read-out: Percentage damage caused to weed species, post-emergence, ALOMY. The method, then:
as §1, with “8 days” for “one day”
(§3) The test plants were then grown on under controlled conditions in a glasshouse (at 24/16° C., day/night; 14 hours light; 65% humidity) and watered twice daily. After 13 days the test was evaluated (100=total damage to plant; 0=no damage to plant).

Assay [8] has as its system Amaranthus retroflexus (AMARE). The description is as above. The settings on record: 312 h, 1,000 g/ha, post-emergence (sprayed after 8 days), evaluated after 13 days, 100=total damage, 0=no damage, read-out: Percentage damage caused to weed species, post-emergence, AMARE. The protocol:
as §1, with “8 days” for “one day”
as §3

Assay [9] deals with Echinochloa crus-galli (ECHCG). The description is as above. The note with it: 312 h, 1,000 g/ha, post-emergence (sprayed after 8 days), evaluated after 13 days, 100=total damage, 0=no damage, read-out: Percentage damage caused to weed species, post-emergence, ECHCG. The protocol:
as §1, with “8 days” for “one day”
as §3

The subject of assay [10] is Ipomoea hederaceae (IPOHE). The assay is described as above. The note with it: 312 h, 1,000 g/ha, post-emergence (sprayed after 8 days), evaluated after 13 days, 100=total damage, 0=no damage, read-out: Percentage damage caused to weed species, post-emergence, IPOHE. The method, then:
as §1, with “8 days” for “one day”
as §3

For assay [11], the system named is Setaria faberi (SETFA). The description is as above. The note with it: 312 h, 1,000 g/ha, post-emergence (sprayed after 8 days), evaluated after 13 days, 100=total damage, 0=no damage, read-out: Percentage damage caused to weed species, post-emergence, SETFA. The method, then:
as §1, with “8 days” for “one day”
as §3

Assay [12] concerns Solanum nigrum (SOLNI). Described as above. The settings on record: 312 h, 1,000 g/ha, post-emergence (sprayed after 8 days), evaluated after 13 days, 100=total damage, 0=no damage, read-out: Percentage damage caused to weed species, post-emergence, SOLNI. The protocol: as §1, with “8 days” for “one day”
as §3

In the case of `COC(=O)c1nc(Cl)cc(N)c1C=C(C)C` [Compound 2-165, 4-Amino-6-chloro-3-(2-methylprop-1-enyl)-pyridine-2-carboxylic acid methyl ester], the pest or weed control at 1000 g/ha in assay [1] is 80%; in [2], 100%; in assay [3], 70%; in assay [4] it was 90%; in the assay with Setaria faberi (SETFA) [5], 90%; with Solanum nigrum (SOLNI) [6], 100%. The pest or weed control at 1000 g/ha came out at 70% in assay [7]; 100% in [8]; 70% in assay [9]; 70% in [10]; 90% in the assay with Setaria faberi (SETFA) [11]; 90% in the assay with Solanum nigrum (SOLNI) [12].
For the compound `C=CCc1c(N)cc(Cl)nc1C(=O)OC` [Compound 2-7, 4-amino-6-chloro-3-(prop-2-enyl)-pyridine-2-carboxylic acid methyl ester], the pest or weed control at 1000 g/ha in [1] was found to be 30%; in [2], 90%; in [3] it was 40%; in assay [4] it was 70%; in the assay on Setaria faberi (SETFA) [5], 40%; with Solanum nigrum (SOLNI) [6] it was 90%. Also, the pest or weed control at 1000 g/ha stood at 20% in [7]; 90% in [8]; 10% in [9]; 50% in assay [10]; 30% with Setaria faberi (SETFA) [11]; 90% with Solanum nigrum (SOLNI) [12].
In the case of `C=Cc1c(NC2CC2)cc(Cl)nc1C(=O)OC` [Compound 23-4, 6-Chloro-4-cyclopropylamino-3-ethenyl-pyridine-2-carboxylic acid methyl ester], the pest or weed control at 1000 g/ha worked out at 70% in [1]; 100% in [2]; 70% in assay [3]; 80% in [4]; 80% in the assay with Setaria faberi (SETFA) [5]; 100% in the assay on Solanum nigrum (SOLNI) [6]. In addition, the pest or weed control at 1000 g/ha stood at 60% in assay [7]; 100% in [8]; 30% in assay [9]; 70% in assay [10]; 80% in the assay with Setaria faberi (SETFA) [11]; 100% in the assay with Solanum nigrum (SOLNI) [12].
Regarding `C=Cc1c(NCC(C)O)cc(Cl)nc1C(=O)OC` (stereo not drawn) [Compound 21-4, 6-Chloro-3-ethenyl-4-(2-hydroxypropylamino)-pyridine-2-carboxylic acid methyl ester], the pest or weed control at 1000 g/ha in assay [1] stood at 90%; in assay [2], 100%; in assay [3] it was 90%; in assay [4], 80%; with Setaria faberi (SETFA) [5], 90%; with Solanum nigrum (SOLNI) [6], 100%. Besides, the pest or weed control at 1000 g/ha in [7] was determined as 70%; in assay [8] it was 100%; in [9], 80%; in assay [10] it was 50%; in the assay with Setaria faberi (SETFA) [11], 80%; with Solanum nigrum (SOLNI) [12] it was 100%.
For the compound `C/C=C/c1c(N)cc(Cl)nc1C(=O)OC` [2-5 (E isomer), (E)-4-Amino-6-chloro-3-(prop-1-enyl)-pyridine-2-carboxylic acid methyl ester], the pest or weed control at 1000 g/ha in assay [1] was 90%; in assay [2], 90%; in assay [3] it was 70%; in assay [4] it was 100%; with Setaria faberi (SETFA) [5], 100%; with Solanum nigrum (SOLNI) [6] it was 100%. Moreover, the pest or weed control at 1000 g/ha in [7] is 50%; in assay [8], 100%; in [9], 60%; in [10] it was 70%; with Setaria faberi (SETFA) [11] it was 70%; with Solanum nigrum (SOLNI) [12], 90%.
As for `C=Cc1c(C(=O)O)nc(Cl)c(Cl)c1N` [Compound 1-20, 4-Amino-5,6-dichloro-3-ethenyl-pyridine-2-carboxylic acid], the pest or weed control at 1000 g/ha was determined as 90% in assay [1]; 100% in assay [2]; 90% in assay [3]; 100% in assay [4]; 90% in the assay on Setaria faberi (SETFA) [5]; 100% in the assay with Solanum nigrum (SOLNI) [6]. For the same compound, the pest or weed control at 1000 g/ha was found to be 90% in assay [7]; 100% in assay [8]; 90% in assay [9]; 100% in [10]; 90% in the assay with Setaria faberi (SETFA) [11]; 90% in the assay on Solanum nigrum (SOLNI) [12].
Turning to `C=Cc1c(C(=O)OC)nc(Cl)c(F)c1N` [Compound 2-12, 4-amino-6-chloro-3-ethenyl-5-fluoro-pyridine-2-carboxylic acid methyl ester], the pest or weed control at 1000 g/ha in assay [1] was determined as 100%; in assay [2] it was 100%; in assay [3], 100%; in assay [4], 100%; with Setaria faberi (SETFA) [5] it was 90%; with Solanum nigrum (SOLNI) [6], 100%. The pest or weed control at 1000 g/ha turned out to be 80% in [7]; 100% in [8]; 80% in assay [9]; 80% in assay [10]; 90% with Setaria faberi (SETFA) [11]; 100% in the assay with Solanum nigrum (SOLNI) [12].
For the compound `C=Cc1c(NC2CCCC2)cc(Cl)nc1C(=O)OC` [Compound 27-4, 6-Chloro-4-cyclopentylamino-3-ethenyl-pyridine-2-carboxylic acid methyl ester], the pest or weed control at 1000 g/ha in assay [1] is 50%; in assay [2], 100%; in assay [3], 10%; in assay [4], 50%; with Setaria faberi (SETFA) [5], 70%; in the assay with Solanum nigrum (SOLNI) [6] it was 100%. Further, the pest or weed control at 1000 g/ha in [7] amounted to 10%; in assay [8], 100%; in [9] it was 10%; in assay [10] it was 60%; with Setaria faberi (SETFA) [11] it was 70%; in the assay with Solanum nigrum (SOLNI) [12], 80%.
